{"source": "patent US20090017103A1", "about": "“Antisense oligonucleotides for prevention of metastasis formation of cancer cells” (priority 2003, published 2009)", "key": {"osteopontin": {"system": "osteopontin", "experiment": "Western blot of osteopontin expression after exposure to ASOs", "assay_type": "cell-based, human", "settings": "for osteopontin expression in relation to untreated control (100%): MDA-MB231, lipofectamine, 10 μM; for reduction of osteopontin expression: MDA-MB-231"}, "bone sialoprotein II": {"system": "bone sialoprotein II", "experiment": "Western blot of bone sialoprotein II expression after exposure to ASOs", "assay_type": "cell-based, human", "settings": "for bone sialoprotein II expression in relation to untreated control (100%): 10 μM"}}}
{"substance": "5′-CTAACTTAAAAAACAAAAGA-3′ (antisense CTAACTTAAAAAACAAAAGA; all phosphorothioate, sugars by position and methylation of C not given here) [ASO-OPN-4]", "values": [{"measurement": "osteopontin expression in relation to untreated control (100%)", "setting": "osteopontin; single exposure", "value": 16, "unit": "%"}, {"measurement": "osteopontin expression in relation to untreated control (100%)", "setting": "osteopontin; twofold exposure", "value": 23, "unit": "%"}, {"measurement": "reduction of osteopontin expression", "setting": "osteopontin; repeated ASO exposure", "value": 77, "unit": "%"}, {"measurement": "reduction of osteopontin expression", "setting": "osteopontin; single exposure", "value": 84, "unit": "%"}, {"measurement": "maximum inhibition of protein expression / suppression of protein level (OPN)", "setting": "osteopontin; MDA-MB-231 cells, Western blot", "value": 85, "unit": "%"}]}
{"substance": "5′-GCT-TTC-TTC-GTT-TTC-ATT-TC-3′ [ASO-BSPII-6]", "values": [{"measurement": "bone sialoprotein II expression in relation to untreated control (100%)", "setting": "bone sialoprotein II; MDA-MB231, single exposure, electroporation", "value": 16, "unit": "%"}, {"measurement": "bone sialoprotein II expression in relation to untreated control (100%)", "setting": "bone sialoprotein II; MDA-MB231, single exposure, lipofectamine", "value": 33, "unit": "%"}, {"measurement": "bone sialoprotein II expression in relation to untreated control (100%)", "setting": "bone sialoprotein II; MDA-MB231, twofold exposure, lipofectamine", "value": 15, "unit": "%"}, {"measurement": "bone sialoprotein II expression in relation to untreated control (100%)", "setting": "bone sialoprotein II; MDA-MB231^F (growing without FBS), single exposure, lipofectamine", "value": 79, "unit": "%"}, {"measurement": "bone sialoprotein II expression in relation to untreated control (100%)", "setting": "bone sialoprotein II; MDA-MB435s, single exposure, lipofectamine", "value": 0, "unit": "%"}, {"measurement": "maximum inhibition of protein expression / suppression of protein level (BSP II)", "setting": "bone sialoprotein II; MDA-MB-231 cells, Western blot", "value": 75, "unit": "%"}, {"measurement": "reduction of bone sialoprotein expression", "setting": "bone sialoprotein II; single exposure", "value": 84, "unit": "%"}, {"measurement": "reduction of bone sialoprotein protein level", "setting": "bone sialoprotein II; twofold exposure", "value": 81, "unit": "%"}]}
